US20100111888A1, “Organic Compounds and Compositions Having the Ability to Modulate Fragrance Compositions” (GIVAUDAN SA, priority 2007, published 2010)

Target: T1, CYP2A13 (Homo sapiens, UniProt Q16696)
T1 construct: made in house; host or cells: Sf9 insect cells, recombinant baculovirus
T1 sequence (Q16696 1-494): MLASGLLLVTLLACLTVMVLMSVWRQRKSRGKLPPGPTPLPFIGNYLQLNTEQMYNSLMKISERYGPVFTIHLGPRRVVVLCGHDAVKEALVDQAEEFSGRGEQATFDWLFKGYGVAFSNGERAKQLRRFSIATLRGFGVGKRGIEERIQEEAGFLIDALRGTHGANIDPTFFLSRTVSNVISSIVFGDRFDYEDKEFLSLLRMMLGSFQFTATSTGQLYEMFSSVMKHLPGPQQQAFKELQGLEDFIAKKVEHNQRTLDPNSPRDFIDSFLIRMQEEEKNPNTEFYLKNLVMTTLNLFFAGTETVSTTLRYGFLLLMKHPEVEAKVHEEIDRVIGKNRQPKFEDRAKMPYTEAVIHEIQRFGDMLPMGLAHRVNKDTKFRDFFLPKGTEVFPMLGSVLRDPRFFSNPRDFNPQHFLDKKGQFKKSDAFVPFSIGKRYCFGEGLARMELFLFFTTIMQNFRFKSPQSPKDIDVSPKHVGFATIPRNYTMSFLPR
Test: Evaluation of test compounds as inhibitors of CYP2A13 (coumarin to Umbelliferone, fluorescence)
Assay type: biochemical
Settings: substrate coumarin 0.006 mM; microsomes with 7 pmoles CYP2A13; 60 min at 37° C.; read-out: CYP2A13 inhibitor activity IC50
Excerpt: P450 reductase is commercially available (BD Biosciences Gentest, USA).
Microsomes were used which contained 7 pmoles CYP2A13.

| SMILES | IC50 [µM] |
| --- | --- |
| CCCCCC/C(=C\c1ccccc1)C(C)=O [Compound ID 6, (E)-3-benzylidenenonan-2-one] | 3 |
| CCCCC/C(=C\c1ccc(C#N)cc1)C(C)=O [Compound ID 7, (E)-4-(2-acetylhept-1-enyl)benzonitrile] | 2 |
| CCCCC/C(=C\c1ccc2ccccc2c1)C(C)=O [Compound ID 8, (E)-3-(naphthalen-2-ylmethylene)octan-2-one] | 16.3 |
| CCCCC/C(=C\c1cccs1)C(C)=O [Compound ID 9, (E)-3-(thiophen-2-ylmethylene)octan-2-one] | 5.3 |
| CCCC/C(=C\C1CCOC1)C(C)=O (centres unmarked) [Compound ID 10, (E)-3-((tetrahydrofuran-3-yl)methylene)heptan-2-one] | 15.5 |
| CCCCC/C(=C\C(OC)OC)C(C)=O [Compound ID 11, (E)-3-(2,2-dimethoxyethylidene)octan-2-one] | 1.6 |
| CCCCC/C(=C\CC1(C)OCCO1)C(C)=O [Compound ID 12, (E)-3-(2-(2-methyl-1,3-dioxolan-2-yl)ethylidene)octan-2-one] | 3.2 |
| CCCCCC/C(=C\C1CC1)C(=O)/C=C/C1CC1 [Compound ID 13, (1E,4E)-1-cyclopropyl-4-(cyclopropylmethylene)dec-1-en-3-one] | 9.7 |
| CCCCCC1(C(=O)OC)CCCC1 [Compound ID 14, methyl 1-pentylcyclopentanecarboxylate] | 2.1 |
| CCCCCC1(C(C)=O)CCCC1 [Compound ID 15, 1-(1-pentylcyclopentyl)ethanone] | 0.7 |
| CCCCC/C(=C\C1CCCCC1)C(C)=O [Compound ID 16, (E)-3-(cyclohexylmethylene)octan-2-one] | 0.5 |
| CCCCC/C(=C\C1CC=CCC1)C(C)=O (centres unmarked) [Compound ID 17, (E)-3-(cyclohex-3-enylmethylene)octan-2-one] | 0.6 |
| CCCCC/C(=C\C1CCCC1)C(C)=O [Compound ID 18, (E)-3-(cyclopentylmethylene)octan-2-one] | 0.5 |
| CCCCC/C(=C\C1CCC1)C(C)=O [Compound ID 19, (E)-3-(cyclobutylmethylene)octan-2-one] | 0.3 |
| CCCCC/C(=C\c1ccccc1F)C(C)=O [Compound ID 20, (E)-3-(2-fluorobenzylidene)octan-2-one] | 0.3 |
| CCCCC/C(=C\c1cccc(F)c1)C(C)=O [Compound ID 21, (E)-3-(3-fluorobenzylidene)octan-2-one] | 0.3 |
| CCCCC/C(=C\c1ccc(F)cc1)C(C)=O [Compound ID 22, (E)-3-(4-fluorobenzylidene)octan-2-one] | 0.4 |
| CCCCC/C(=C\c1c(F)cccc1F)C(C)=O [Compound ID 23, (E)-3-(2,6-difluorobenzylidene)octan-2-one] | 0.2 |
| CCCCC/C(=C\c1ccc(F)cc1F)C(C)=O [Compound ID 24, (E)-3-(2,4-difluorobenzylidene)octan-2-one] | 0.2 |
| CCCCC/C(=C\c1cc(F)cc(F)c1)C(C)=O [Compound ID 25, (E)-3-(3,5-difluorobenzylidene)octan-2-one] | 0.6 |
| CCCCC/C(=C/c1cc(F)cc(F)c1)C(C)=O [Compound ID 26, (Z)-3-(3,5-difluorobenzylidene)octan-2-one] | 14.3 |
| CCCCC/C(=C\c1c(F)c(F)c(F)c(F)c1F)C(C)=O [Compound ID 27, (E)-3-(perfluorobenzylidene)octan-2-one] | 0.7 |
| CCCCC/C(=C\c1ccccc1C)C(C)=O [Compound ID 28, (E)-3-(2-methylbenzylidene)octan-2-one] | 0.3 |
| CCCCC/C(=C\c1cccc(C)c1)C(C)=O [Compound ID 29, (E)-3-(3-methylbenzylidene)octan-2-one] | 0.4 |

| SMILES | IC50 [µM] |
| --- | --- |
| CCCCC/C(=C\c1ccc(C)cc1)C(C)=O [Compound ID 30, (E)-3-(4-methylbenzylidene)octan-2-one] | 0.4 |
| CCCCC/C(=C\c1ccccc1C(F)(F)F)C(C)=O [Compound ID 31, (E)-3-(2-(trifluoromethyl)benzylidene)octan-2-one] | 0.2 |
| CCC/C(=C\c1ccccc1)C(C)=O [Compound ID 32, (E)-3-benzylidenehexan-2-one] | 1 |
| CCCC/C(=C\c1ccccc1)C(C)=O [Compound ID 33, (E)-3-benzylideneheptan-2-one] | 0.6 |
| CCCCC/C(=C\c1ccccc1OC)C(C)=O [Compound ID 34, (E)-3-(2-methoxybenzylidene)octan-2-one] | 0.4 |
| CCCCC/C(=C\c1cccc(OC)c1)C(C)=O [Compound ID 35, (E)-3-(3-methoxybenzylidene)octan-2-one] | 0.5 |
| CCCCC/C(=C\c1ccc(OC)cc1)C(C)=O [Compound ID 36, (E)-3-(4-methoxybenzylidene)octan-2-one] | 0.4 |
| CCCC/C(=C\c1ccc(OC)cc1)C(C)=O [Compound ID 37, (E)-3-(4-methoxybenzylidene)heptan-2-one] | 1.4 |
| CCC/C(=C\c1ccc(OC)cc1)C(C)=O [Compound ID 38, (E)-3-(4-methoxybenzylidene)hexan-2-one] | 2 |
| CCCCC/C(=C\c1ccc2c(c1)OCO2)C(C)=O [Compound ID 39, (E)-3-(benzo[d][1,3]dioxol-5-ylmethylene)octan-2-one] | 2 |
| CCCCC/C(=C\c1ccc(C(=O)OC)cc1)C(C)=O [Compound ID 40, (E)-methyl 4-(2-acetylhept-1-enyl)benzoate] | 1.1 |
| CCCCC/C(=C/c1ccc(C(=O)OC)cc1)C(C)=O [Compound ID 41, (Z)-methyl 4-(2-acetylhept-1-enyl)benzoate] | 47.2 |
| CCCCC/C(=C\c1ccccn1)C(C)=O [Compound ID 43, (E)-3-(pyridin-2-ylmethylene)octan-2-one] | 0.1 |
| CCCCC/C(=C\c1cccnc1)C(C)=O [Compound ID 44, (E)-3-(pyridin-3-ylmethylene)octan-2-one] | 0.1 |
| CCCCC/C(=C\c1ccncc1)C(C)=O [Compound ID 45, (E)-3-(pyridin-4-ylmethylene)octan-2-one] | 0.5 |
| CCCCC/C(=C\C1CC1)C(=O)OC [Compound ID 46, (E)-methyl 2-(cyclopropylmethylene)heptanoate] | 2.3 |
| CCCCC/C(=C\c1ccccc1)C(=O)OC [Compound ID 47, (E)-methyl 2-benzylideneheptanoate] | 0.5 |
| CCCCCC(CC1CC1)C(=O)OC (centres unmarked) [Compound ID 48, methyl 2-(cyclopropylmethyl)heptanoate] | 8.7 |
| CCCCCC(Cc1ccccc1)C(=O)OC (centres unmarked) [Compound ID 49, methyl 2-benzylheptanoate] | 4.4 |
| CCCCCC(CC1CC1)C(C)=O (centres unmarked) [Compound ID 50, 3-(cyclopropylmethyl)octan-2-one] | 1.3 |
| CCCCC/C(C(C)=O)=C(/C)c1ccccc1 [Compound ID 51, (E)-3-(1-phenylethylidene)octan-2-one] | 2.5 |
| CCCCC/C(=C\C1CC1)C(=O)c1ccccc1 [Compound ID 52, (E)-2-(cyclopropylmethylene)-1-phenylheptan-1-one] | 6.6 |
| CCCCC/C(=C\C(C)(C)C)C(=O)OC [Compound ID 53, (E)-methyl 2-(2,2-dimethylpropylidene)heptanoate] | 1.9 |
